# Target: [35S]-TBPS binding, rat brain cortical membranes
# Test: Steroid inhibition of [35S]-TBPS binding
# Conditions: 3 nM [35S]-TBPS, in the presence of 5 mM GABA
# Outline: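 Rat cortical P2 membranes incubated 90 min at room temperature with 3 nM [35S]-TBPS, […] and test compound (0.5% DMSO final) in NaCl/Na–K phosphate pH 7.4; nonspecific binding with […]. Filter-bound radioactivity counted; IC50 and Imax from nonlinear fits, mean ± SEM.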
row,SMILES,IC50
1,"COC[C@@]1(O)CC[C@H]2[C@@H](CC[C@@H]3[C@@H]2CC[C@]2(C)[C@@H](CCn4nnc(C)n4)CC[C@@H]32)C1 [Example 295, (3R,5S,8R,9R,10S,13R,14S,17R)-3-(methoxymethyl)-13-methyl-17-(2-(5-methyl-2H-tetrazol-2-yl)ethyl)hexadecahydro-1H-cyclopenta[a]phenanthren-3-ol]",< 100 nM
2,"COC[C@@]1(O)CC[C@H]2[C@@H](CC[C@@H]3[C@@H]2CC[C@]2(C)[C@@H](CCn4nnnc4C)CC[C@@H]32)C1 [Example 296, (3R,5S,8R,9R,10S,13R,14S,17R)-3-(methoxymethyl)-13-methyl-17-(2-(5-methyl-1H-tetrazol-1-yl)ethyl)hexadecahydro-1H-cyclopenta[a]phenanthren-3-ol]",< 100 nM
3,"COC[C@@]1(O)CC[C@H]2[C@@H](CC[C@@H]3[C@@H]2CC[C@]2(C)[C@@H](CCn4nccn4)CC[C@@H]32)C1 [Example 297, (3R,5S,8R,9R,10S,13R,14S,17R)-17-(2-(2H-1,2,3-triazol-2-yl)ethyl)-3-(methoxymethyl)-13-methylhexadecahydro-1H-cyclopenta[a]phenanthren-3-ol]",< 100 nM
4,"COC[C@@]1(O)CC[C@H]2[C@@H](CC[C@@H]3[C@@H]2CC[C@]2(C)[C@@H](CCn4ccnn4)CC[C@@H]32)C1 [Example 298, (3R,5S,8R,9R,10S,13R,14S,17R)-17-(2-(1H-1,2,3-triazol-1-yl)ethyl)-3-(methoxymethyl)-13-methylhexadecahydro-1H-cyclopenta[a]phenanthren-3-ol]",< 100 nM
5,"CC(C)C[C@@]1(O)CC[C@H]2[C@H](CC[C@@H]3[C@@H]2CC[C@]2(C)[C@@H]([C@H](C)Cn4cc(C#N)cn4)CC[C@@H]32)C1 [Example 300, 1-((S)-2-((3S,5R,8R,9R,10S,13S,14S,17R)-3-hydroxy-3-isobutyl-13-methylhexadecahydro-1H-cyclopenta[a]phenanthren-17-yl)propyl)-1H-pyrazole-4-carbonitrile]",< 100 nM
6,"CCC[C@@]1(O)CC[C@@]2(CC)[C@H](CC[C@H]3[C@@H]4CC[C@H]([C@@H](C)Cn5cc(C#N)cn5)[C@@]4(C)CC[C@@H]32)C1 [Example 301, 1-((R)-2-((3R,5R,8S,9S,10S,13S,14S,17R)-10-ethyl-3-hydroxy-13-methyl-3-propylhexadecahydro-1H-cyclopenta[a]phenanthren-17-yl)propyl)-1H-pyrazole-4-carbonitrile]",< 100 nM
7,"CCC[C@@]1(O)CC[C@@]2(CC)[C@H](CC[C@H]3[C@@H]4CC[C@H]([C@H](C)Cn5cc(C#N)cn5)[C@@]4(C)CC[C@@H]32)C1 [Example 302, 1-((S)-2-((3R,5R,8S,9S,10S,13S,14S,17R)-10-ethyl-3-hydroxy-13-methyl-3-propylhexadecahydro-1H-cyclopenta[a]phenanthren-17-yl)propyl)-1H-pyrazole-4-carbonitrile]",< 100 nM
8,"C[C@H](Cn1cc(C#N)cn1)[C@H]1CC[C@H]2[C@@H]3CC[C@@H]4C[C@@](O)(CC5CC5)CC[C@@H]4[C@H]3CC[C@]12C [Example 304, 1-((S)-2-((3S,5R,8R,9R,10S,13S,14S,17R)-3-(cyclopropylmethyl)-3-hydroxy-13-methylhexadecahydro-1H-cyclopenta[a]phenanthren-17-yl)propyl)-1H-pyrazole-4-carbonitrile]",< 100 nM
9,"C[C@@H](Cn1cc(C#N)cn1)[C@H]1CC[C@H]2[C@@H]3CC[C@@H]4C[C@](C)(O)CC[C@]4(C)[C@H]3CC[C@]12C [Example 305, 1-((R)-2-((3R,5R,8R,9S,10S,13S,14S,17R)-3-hydroxy-3,10,13-trimethylhexadecahydro-1H-cyclopenta[a]phenanthren-17-yl)propyl)-1H-pyrazole-4-carbonitrile]",< 100 nM
10,"C[C@H](Cn1cc(C#N)cn1)[C@H]1CC[C@H]2[C@@H]3CC[C@@H]4C[C@](C)(O)CC[C@]4(C)[C@H]3CC[C@]12C [Example 306, 1-((S)-2-((3R,5R,8R,9S,10S,13S,14S,17R)-3-hydroxy-3,10,13-trimethylhexadecahydro-1H-cyclopenta[a]phenanthren-17-yl)propyl)-1H-pyrazole-4-carbonitrile]",< 100 nM
11,"CCC[C@@]1(O)CC[C@@]2(C)[C@H](CC[C@@H]3[C@@H]2CC[C@]2(C)[C@@H]([C@@H](C)Cn4cc(C#N)cn4)CC[C@@H]32)C1 [Example 307, 1-((R)-2-((3R,5R,8R,9S,10S,13S,14S,17R)-3-hydroxy-10,13-dimethyl-3-propylhexadecahydro-1H-cyclopenta[a]phenanthren-17-yl)propyl)-1H-pyrazole-4-carbonitrile]",< 100 nM
12,"CCC[C@@]1(O)CC[C@@]2(C)[C@H](CC[C@@H]3[C@@H]2CC[C@]2(C)[C@@H]([C@H](C)Cn4cc(C#N)cn4)CC[C@@H]32)C1 [Example 308, 1-((S)-2-((3R,5R,8R,9S,10S,13S,14S,17R)-3-hydroxy-10,13-dimethyl-3-propylhexadecahydro-1H-cyclopenta[a]phenanthren-17-yl)propyl)-1H-pyrazole-4-carbonitrile]",< 100 nM
13,"CCC[C@@]1(O)CC[C@@]2(C)[C@H](CC[C@@H]3[C@@H]2[C@@H](O)C[C@]2(C)[C@@H]([C@@H](C)Cn4cc(C#N)cn4)CC[C@@H]32)C1 [Example 309, 1-((R)-2-((3R,5R,8S,9S,10S,11S,13S,14S,17R)-3,11-dihydroxy-10,13-dimethyl-3-propylhexadecahydro-1H-cyclopenta[a]phenanthren-17-yl)propyl)-1H-pyrazole-4-carbonitrile]",< 100 nM
14,"CCC[C@@]1(O)CC[C@@]2(C)[C@H](CC[C@@H]3[C@@H]2[C@@H](O)C[C@]2(C)[C@@H]([C@H](C)Cn4cc(C#N)cn4)CC[C@@H]32)C1 [Example 310, 1-((S)-2-((3R,5R,8S,9S,10S,11S,13S,14S,17R)-3,11-dihydroxy-10,13-dimethyl-3-propylhexadecahydro-1H-cyclopenta[a]phenanthren-17-yl)propyl)-1H-pyrazole-4-carbonitrile]",100 to 1000 nM
15,CCCC[C@@]1(O)CC[C@H]2[C@H](CC[C@@H]3[C@@H]2CC[C@]2(C)[C@@H]([C@H](C)Cn4cc(C#N)cn4)CC[C@@H]32)C1 [Example 312],< 100 nM
16,"CCC[C@@]1(O)CC[C@@]2(C)[C@H](CC[C@@H]3[C@@H]2CC[C@]2(C)[C@@H]([C@@H](C)Cn4nnc(C)n4)CC[C@@H]32)C1 [Example 313, (3R,5R,8R,9S,10S,13S,14S,17R)-10,13-dimethyl-17-((R)-1-(5-methyl-2H-tetrazol-2-yl)propan-2-yl)-3-propylhexadecahydro-1H-cyclopenta[a]phenanthren-3-ol]",< 100 nM
17,"CCC[C@@]1(O)CC[C@@]2(C)[C@H](CC[C@@H]3[C@@H]2CC[C@]2(C)[C@@H]([C@H](C)Cn4nnc(C)n4)CC[C@@H]32)C1 [Example 314, (3R,5R,8R,9S,10S,13S,14S,17R)-10,13-dimethyl-17-((S)-1-(5-methyl-2H-tetrazol-2-yl)propan-2-yl)-3-propylhexadecahydro-1H-cyclopenta[a]phenanthren-3-ol]",100 to 1000 nM
18,"CCC[C@@]1(O)CC[C@@]2(C)[C@H](CC[C@@H]3[C@@H]2CC[C@]2(C)[C@@H]([C@@H](C)Cn4nnnc4C)CC[C@@H]32)C1 [Example 315, (3R,5R,8R,9S,10S,13S,14S,17R)-10,13-dimethyl-17-((R)-1-(5-methyl-1H-tetrazol-1-yl)propan-2-yl)-3-propylhexadecahydro-1H-cyclopenta[a]phenanthren-3-ol]",< 100 nM
19,"CCC[C@@]1(O)CC[C@@]2(C)[C@H](CC[C@@H]3[C@@H]2CC[C@]2(C)[C@@H]([C@H](C)Cn4nnnc4C)CC[C@@H]32)C1 [Example 316, (3R,5R,8R,9S,10S,13S,14S,17R)-10,13-dimethyl-17-((S)-1-(5-methyl-1H-tetrazol-1-yl)propan-2-yl)-3-propylhexadecahydro-1H-cyclopenta[a]phenanthren-3-ol]",< 100 nM
20,"CC[C@]12CC[C@H]3[C@@H](CC[C@@H]4C[C@](C)(O)CC[C@@H]43)[C@@H]1CC[C@@H]2[C@@H](C)Cn1cc(C#N)cn1 [Example 317, 1-((R)-2-((3R,5R,8R,9R,10S,13S,14S,17R)-13-ethyl-3-hydroxy-3-methylhexadecahydro-1H-cyclopenta[a]phenanthren-17-yl)propyl)-1H-pyrazole-4-carbonitrile]",< 100 nM
21,"CC[C@]12CC[C@H]3[C@@H](CC[C@@H]4C[C@](C)(O)CC[C@@H]43)[C@@H]1CC[C@@H]2[C@H](C)Cn1cc(C#N)cn1 [Example 318, 1-((S)-2-((3R,5R,8R,9R,10S,13S,14S,17R)-13-ethyl-3-hydroxy-3-methylhexadecahydro-1H-cyclopenta[a]phenanthren-17-yl)propyl)-1H-pyrazole-4-carbonitrile]",< 100 nM
22,"CCC[C@@]1(O)CC[C@@]2(COC)[C@H](CC[C@H]3[C@@H]4CC[C@H]([C@@H](C)Cn5nnc(C)n5)[C@@]4(C)CC[C@@H]32)C1 [Example 319, (3R,5R,8S,9S,10R,13S,14S,17R)-10-(methoxymethyl)-13-methyl-17-((R)-1-(5-methyl-2H-tetrazol-2-yl)propan-2-yl)-3-propylhexadecahydro-1H-cyclopenta[a]phenanthren-3-ol]",< 100 nM
23,"CCC[C@@]1(O)CC[C@@]2(COC)[C@H](CC[C@H]3[C@@H]4CC[C@H]([C@@H](C)Cn5nnnc5C)[C@@]4(C)CC[C@@H]32)C1 [Example 321, (3R,5R,8S,9S,10R,13S,14S,17R)-10-(methoxymethyl)-13-methyl-17-((R)-1-(5-methyl-1H-tetrazol-1-yl)propan-2-yl)-3-propylhexadecahydro-1H-cyclopenta[a]phenanthren-3-ol]",< 100 nM
